{"source": "paper PMC6943619", "about": "“Synthesis and Pharmacological Evaluation of Hybrids Targeting Opioid and Neurokinin Receptors” (Molecules, 2019)", "key": {"[1]": {"biological_target": "T1, human opioid receptor DOR (Homo sapiens, UniProt P41143)", "T1 construct": "purchased PerkinElmer (Krakow, Poland); host or cells: CHO cell membranes", "T1 sequence (P41143 whole entry)": "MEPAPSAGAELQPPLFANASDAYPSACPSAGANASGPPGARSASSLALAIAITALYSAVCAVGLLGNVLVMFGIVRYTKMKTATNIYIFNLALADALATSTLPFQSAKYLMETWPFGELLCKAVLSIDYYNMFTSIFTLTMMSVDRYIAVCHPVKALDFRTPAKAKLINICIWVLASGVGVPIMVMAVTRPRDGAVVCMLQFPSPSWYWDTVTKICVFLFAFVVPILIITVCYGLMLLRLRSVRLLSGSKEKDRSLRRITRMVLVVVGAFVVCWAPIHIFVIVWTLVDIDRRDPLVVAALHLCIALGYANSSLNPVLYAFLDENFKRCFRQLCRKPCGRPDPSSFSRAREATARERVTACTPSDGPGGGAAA", "assay": "Radioligand binding assay, displacement of [3H]deltorphin-2", "settings": "displacement of [3H]deltorphin-2 from membranes of CHO cells transfected with human DOR, 50 mM Tris/HCl pH 7.4, 0.5% BSA, peptidase inhibitors, 2 h at 25 °C, mean ± SEM, n ≥ 3", "experimental": "A radioligand binding assay was performed to determine the opioid receptor (OR) binding affinities of the novel analogs using commercially available membranes of Chinese hamster ovary cells (CHO) transfected with human recombinant ORs. […] Tyr-[D-Lys-Phe-Phe-Asp]NH2 (1) was used as a reference opioid compound.\n(§1) To determine the affinity of peptide analogs to respective receptors, competition binding experiments were performed, as described in detail elsewhere.\nCommercial membranes of CHO cells stably expressing either human ORs or NK1 receptor were used. […] Membranes were incubated in a 0.5 mL volume of 50 mM Tris/HCl (pH = 7.4), 0.5% bovine serum albumin (BSA), with a number of peptidase inhibitors (bacitracin, bestatin, captopril) and various concentrations of radioligands for 2 h at 25 °C.\n(§2) The pharmacological terminology adopted in this paper is consistent with International Union of Basic and Clinical Pharmacology (IUPHAR) recommendations. Concentration–response curves were analyzed by nonlinear regression using Graph Pad Prism 6.0 (La Jolla, CA, USA). […] Concentration–response curves were fitted with the four-parameter logistic nonlinear regression model (1) Effect=baseline+Emax−baseline/1+10^logEC50−X·n where X is the agonist concentration and n is the Hill coefficient. Ligand efficacy was expressed as intrinsic activity (α) calculated as a ratio of the peptide Emax to the Emax of the standard agonist (Supplementary Materials, Figure S7). […] All statistical analyses were performed using Graph Pad Prism 6.0 (La Jolla, CA, USA). Differences between groups were analyzed with one-way ANOVA and a post hoc multiple comparison by the Student–Newman–Keuls test. A probability level of 0.05 or smaller was used to indicate statistical significance."}, "[2]": {"biological_target": "T2, human opioid receptor MOR (Homo sapiens, UniProt P35372)", "T2 construct": "purchased PerkinElmer (Krakow, Poland); host or cells: CHO cell membranes", "T2 sequence (P35372 whole entry)": "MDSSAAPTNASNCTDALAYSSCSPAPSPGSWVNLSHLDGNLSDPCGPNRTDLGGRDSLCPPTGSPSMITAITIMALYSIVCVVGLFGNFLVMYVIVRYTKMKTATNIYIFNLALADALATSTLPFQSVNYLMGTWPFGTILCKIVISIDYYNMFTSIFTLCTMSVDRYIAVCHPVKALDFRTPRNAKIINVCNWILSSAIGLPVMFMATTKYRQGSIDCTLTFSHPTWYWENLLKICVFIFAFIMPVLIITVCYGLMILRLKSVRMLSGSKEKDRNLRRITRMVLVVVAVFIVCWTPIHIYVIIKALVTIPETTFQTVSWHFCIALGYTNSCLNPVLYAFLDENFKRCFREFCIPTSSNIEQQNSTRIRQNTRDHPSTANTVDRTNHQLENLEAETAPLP", "assay": "Radioligand binding assay, displacement of [3H]DAMGO", "settings": "displacement of [3H]DAMGO from membranes of CHO cells transfected with human MOR, 50 mM Tris/HCl pH 7.4, 0.5% BSA, peptidase inhibitors, 2 h at 25 °C, mean ± SEM, n ≥ 3", "experimental": "A radioligand binding assay was performed to determine the opioid receptor (OR) binding affinities of the novel analogs using commercially available membranes of Chinese hamster ovary cells (CHO) transfected with human recombinant ORs. [^3H]DAMGO, [^3H]deltorphin-2, and [^3H]U-69593 were used as the radioligands for MOR, DOR, and KOR, respectively. Tyr-[D-Lys-Phe-Phe-Asp]NH2 (1) was used as a reference opioid compound. […] None of them acquired significant DOR affinity.\nas §1\nCommercial membranes of CHO cells stably expressing either human ORs or NK1 receptor were used. [^3H]DAMGO, [^3H]deltorphin-2, and [^3H]U-69593 were employed as the competing radioligands for MOR, DOR, and KOR, respectively, while [^3H][Sar^9, Met(O2)^11]SP was utilized for the NK1 receptor. Membranes were incubated in a 0.5 mL volume of 50 mM Tris/HCl (pH = 7.4), 0.5% bovine serum albumin (BSA), with a number of peptidase inhibitors (bacitracin, bestatin, captopril) and various concentrations of radioligands for 2 h at 25 °C. Nonspecific binding was assessed in the presence of […] naloxone for ORs or SP for NK1 receptor.\nThe pharmacological terminology adopted in this paper is consistent with International Union of Basic and Clinical Pharmacology (IUPHAR) recommendations. Concentration–response curves were analyzed by nonlinear regression using Graph Pad Prism 6.0 (La Jolla, CA, USA). […]. […] Concentration–response curves were fitted with the four-parameter logistic nonlinear regression model (1) Effect=baseline+Emax−baseline/1+10^logEC50−X·n where X is the agonist concentration and n is the Hill coefficient. Ligand efficacy was expressed as intrinsic activity (α) calculated as a ratio of the peptide Emax to the Emax of the standard agonist (Supplementary Materials, Figure S7). […]. All statistical analyses were performed using Graph Pad Prism 6.0 (La Jolla, CA, USA). Differences between groups were analyzed with one-way ANOVA and a post hoc multiple comparison by the Student–Newman–Keuls test. A probability level of 0.05 or smaller was used to indicate statistical significance."}, "[3]": {"biological_target": "T3, DOR (Homo sapiens, UniProt P41143)", "T3 construct": "expressed in transfected cells; host or cells: CHO cells (University of Ferrara), co-expressing GαqG66Di5", "T3 sequence (P41143 whole entry)": "as the sequence (P41143 whole entry) above", "assay": "Calcium mobilization functional assay, agonist mode", "assay_type": "cell-based", "settings": "CHO cells co-expressing DOR and GαqG66Di5, n = 5; for DOR pEC50 (CL95%): Fluo-4 AM calcium signal; for DOR α ± SEM: efficacy (intrinsic activity), Emax relative to DPDPE, mean ± SEM"}, "[4]": {"tested_on": "mice", "assay": "Stool collection (stool mass, stool water content)", "assay_type": "in vivo", "settings": "repeated i.p. injections 5 mg/kg, stool collected 90 min after injection on Days 1–6, compared to control group, n = 10", "experimental": "In order to determine the influence of prolonged administration of the tested compounds on gastrointestinal passage, stool was collected for six days from mice used in the tolerance development test.\nFigure 5 Effect of repeated i.p. injections of saline and the tested peptides on stool mass (A), stool water content (B), food intake (C), and water consumption (D). The data represent mean ± SEM, n = 10. Statistical significance was assessed using one-way ANOVA and a post hoc multiple comparison by the Student–Newman–Keuls test. *** p < 0.001, as compared to control.\nAfter the i.p. injections of saline or peptides (Days 1–6), mice were placed in a separate clean cages and stool was collected for a period of 90 min. Fecal pellets were collected immediately after expulsion to avoid evaporation and placed in closed 1.5 mL tubes. Tubes were weighed to obtain the wet weight of the stool. Then, the tubes were opened and stool was dried overnight at 65 °C and reweighed to obtain the dry weight. The stool water content was calculated from the difference between the wet and dry stool weights."}, "[5]": {"biological_target": "T4, human NK1 (Homo sapiens, UniProt P25103)", "T4 sequence (P25103 whole entry)": "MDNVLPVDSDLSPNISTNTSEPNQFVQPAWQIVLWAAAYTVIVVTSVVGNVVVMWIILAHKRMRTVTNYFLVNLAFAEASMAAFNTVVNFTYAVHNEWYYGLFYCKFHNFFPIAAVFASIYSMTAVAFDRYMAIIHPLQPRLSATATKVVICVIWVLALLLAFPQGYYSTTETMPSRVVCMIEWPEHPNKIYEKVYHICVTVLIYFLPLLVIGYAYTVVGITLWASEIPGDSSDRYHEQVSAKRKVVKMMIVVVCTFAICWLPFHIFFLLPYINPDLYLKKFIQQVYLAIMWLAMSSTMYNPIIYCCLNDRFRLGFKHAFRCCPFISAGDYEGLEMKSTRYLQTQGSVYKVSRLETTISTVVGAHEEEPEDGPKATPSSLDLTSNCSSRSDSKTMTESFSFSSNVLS", "assay": "Calcium mobilization functional assay, agonist mode, CHONK1 cells", "assay_type": "cell-based", "design": "expressed in transfected cells; host or cells: CHO cells (gift of Prof. T. Costa, ISS, Rome)", "settings": "for NK1 α ± SEM: efficacy (intrinsic activity), Emax relative to SP"}, "[6]": {"biological_target": "T4, human NK1", "assay": "Calcium mobilization assay, inhibition response experiments against SP", "assay_type": "cell-based", "design": "expressed in transfected cells; host or cells: CHO cells (gift of Prof. T. Costa, ISS, Rome)", "experimental": "Following aspiration of the loading solution and a washing step, serial dilutions of peptide stock solutions were added.\nas §2"}}, "note": "Where a SMILES comes first, the peptide text is derived from it. Bridges are numbered along the chain shown (N, C = ends). [ ]: non-standard residue; d: D form. Nle = CCCC[C@H](N)C(=O)O", "data": [{"smiles": "CSCC[C@H](NC(=O)[C@H](CC(C)C)NC(=O)CNC(=O)[C@H](Cc1ccccc1)NC(=O)[C@H](Cc1ccccc1)NC(=O)[C@H](CCC(N)=O)NC(=O)[C@@H]1CC(=O)NCCCC[C@@H](NC(=O)[C@@H](N)Cc2ccc(O)cc2)C(=O)N[C@@H](Cc2ccccc2)C(=O)N[C@@H](Cc2ccccc2)C(=O)N1)C(N)=O", "note": "[compound 4, Tyr-[D-Lys-Phe-Phe-Asp]-Gln-Phe-Phe-Gly-Leu-Met-NH2] (H-Y[dK]FFDQFFGLM-NH2; lactam 2-5)", "values": [{"measurement": "Ki", "setting": "[1]", "result": "0.225 ± 0.014", "unit": "µM"}, {"measurement": "Ki", "setting": "[2]", "result": "0.00798 ± 0.00097", "unit": "µM"}, {"measurement": "DOR pEC50 (CL95%)", "setting": "[3]", "result": "Crc incomplete"}, {"measurement": "DOR α ± SEM", "setting": "[3]", "result": "Crc incomplete"}, {"measurement": "stool mass (constipation)", "setting": "[4]", "result": "no statistically significant differences"}, {"measurement": "EC50", "setting": "[5]", "result": 0.00355, "unit": "µM"}, {"measurement": "lower potency at NK1 than SP", "setting": "[5]; calcium mobilization, CHONK1 cells, from pEC50 values", "result": "fourfold"}, {"measurement": "NK1 α ± SEM", "setting": "[5]; CHONK1 cells, N = 5, SEM", "result": "0.96 ± 0.05"}]}, {"smiles": "CCCC[C@H](NC(=O)[C@H](CC(C)C)NC(=O)[C@@H](Cc1c[nH]c2ccccc12)NC(=O)[C@H](Cc1ccccc1)NC(=O)[C@@H](Cc1c[nH]c2ccccc12)NC(=O)[C@H](CC(N)=O)NC(=O)[C@@H]1CC(=O)NCCCC[C@@H](NC(=O)[C@@H](N)Cc2ccc(O)cc2)C(=O)N[C@@H](Cc2ccccc2)C(=O)N[C@@H](Cc2ccccc2)C(=O)N1)C(N)=O", "note": "[compound 2, Tyr-[D-Lys-Phe-Phe-Asp]-Asn-D-Trp-Phe-D-Trp-Leu-Nle-NH2] (H-Y[dK]FFDN[dW]F[dW]L[Nle]-NH2; lactam 2-5)", "values": [{"measurement": "Ki", "setting": "[1]", "result": "0.202 ± 0.0025", "unit": "µM"}, {"measurement": "Ki", "setting": "[2]", "result": "0.00599 ± 0.0007", "unit": "µM"}, {"measurement": "DOR pEC50 (CL95%)", "setting": "[3]", "result": "Crc incomplete"}, {"measurement": "DOR α ± SEM", "setting": "[3]", "result": "Crc incomplete"}, {"measurement": "stool mass (constipation)", "setting": "[4]", "result": "no statistically significant differences"}, {"measurement": "NK1 pEC50 (CL95%)", "setting": "[5]; CHO cells expressing human NK1 (CHONK1), Fluo-4 AM calcium signal, N = 5", "result": "Inactive"}, {"measurement": "NK1 α ± SEM", "setting": "[5]; CHONK1 cells, N = 5", "result": "Inactive"}, {"measurement": "Kb", "setting": "[6]", "result": 0.0468, "unit": "µM"}]}]}
